{
  "source": "patent US12247015B2",
  "about": "“3-amino-4H-benzo[e][1,2,4]thiadiazine 1,1-dioxide derivatives as inhibitors of MRGX2” (Solent Therapeutics, LLC, priority 2019, dated 2025)",
  "key": {"[1]": {"target": "hMRGX2 (CHO-K1 cells overexpressing MRGX2) (Homo sapiens (Human), UniProt Q96LB1)", "sequence (Q96LB1 whole entry)": "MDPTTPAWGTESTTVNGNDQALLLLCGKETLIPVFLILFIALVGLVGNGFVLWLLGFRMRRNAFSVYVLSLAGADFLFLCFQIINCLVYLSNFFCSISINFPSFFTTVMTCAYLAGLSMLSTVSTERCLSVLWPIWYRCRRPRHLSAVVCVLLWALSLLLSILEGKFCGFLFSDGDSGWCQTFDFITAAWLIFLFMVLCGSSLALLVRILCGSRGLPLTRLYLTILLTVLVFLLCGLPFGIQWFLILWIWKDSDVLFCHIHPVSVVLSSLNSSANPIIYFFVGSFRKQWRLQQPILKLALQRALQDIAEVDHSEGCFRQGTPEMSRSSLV", "test": "In vitro inhibition (EC50) of intracellular calcium flux, FLIPR Tetra, substance P stimulation", "format": "cell-based", "details": "stimulated with MRGX2 ligand substance P, FLIPR Calcium 5, read-out: hMRGX2 Cellular Potency (pEC50) (converted)", "summary_of_the_method": "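CHO-K1 cells overexpressing human MRGX2, loaded with Calcium 5 dye for 30 min at 37 °C, then given compound (11-point, top 10 μM).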"}, "human MRGX2 receptor": {"target": "human MRGX2 receptor (Homo sapiens (Human), UniProt Q96LB1)", "sequence (Q96LB1 whole entry)": "as above", "test": "In vitro radioligand binding assay (Kd)", "details": "membrane from SF9 cells overexpressing human MRGX2; 3H-labeled ligand; pH 7.4, room temperature, 60 minutes", "procedure": "In vitro Radioligand Binding Assay (Kd)\nEquilibrium dissociation constants, Kd, for many of the compounds described in the Examples section (“test compounds”) are determined in the presence cellular membrane prepared from SF9 cell lines overexpressing the human MRGX2 receptor. The assay is carried out in a 96-well plate (Greiner V-Bottom #651201). […] The assay mixtures, which comprise MRGX2 receptor, radiolabeled ligand and test compound, are incubated at room temperature (˜22° C.) for 60 minutes to reach equilibrium. After incubation, the assay mixtures are collected on a filter mat (Filtermat A, Perkin Elmer) using a cell harvester (Harvester 96, TOMTEC). The filter mat is completely dried. A solid scintillant (Meltilex, Perkin Elmer) is added to each filter membrane and the level of radioactivity (“Signal”) from each well (assay mixture) is recorded using a scintillation counter (Trilux Microbeta, PerkinElmer). Kd is determined by curve-fitting the dose response data ([I], Signal) for each set of samples to the equation,\n[formula] where [I] is the concentration of the test compound. The data are reported as pKd"}},
  "data": [
    {"compound": "COCCNC1=NS(=O)(=O)c2cccc(-c3ccccc3Cl)c2N1", "note": "[Example 35, 5-(2-chlorophenyl)-3-((2-methoxyethyl)amino)-4H-benzo[e][1,2,4]thiadiazine 1,1-dioxide]", "values": [
      {"measurement": "EC50", "setting": "[1]", "result": 92, "unit": "nM"},
      {"measurement": "hMRGX2 Binding Affinity (pKd)", "setting": "human MRGX2 receptor", "result": 4.7}
    ]},
    {"compound": "CCNC1=NS(=O)(=O)c2cccc(-c3cccc(F)c3Cl)c2N1", "note": "[Example 39, 5-(2-chloro-3-fluorophenyl)-3-(ethylamino)-4H-benzo[e][1,2,4]thiadiazine 1,1-dioxide]", "values": [
      {"measurement": "EC50", "setting": "[1]", "result": 52, "unit": "nM"},
      {"measurement": "hMRGX2 Binding Affinity (pKd)", "setting": "human MRGX2 receptor", "result": 7.055}
    ]},
    {"compound": "CNC1=NS(=O)(=O)c2cccc(-c3ccccc3Cl)c2N1", "note": "[Example 43, 5-(2-chlorophenyl)-3-(methylamino)-4H-benzo[e][1,2,4]thiadiazine 1,1-dioxide]", "values": [
      {"measurement": "EC50", "setting": "[1]", "result": 102, "unit": "nM"},
      {"measurement": "hMRGX2 Binding Affinity (pKd)", "setting": "human MRGX2 receptor", "result": 6.47}
    ]},
    {"compound": "O=S1(=O)N=C(NCc2nccs2)Nc2c(-c3cccc(F)c3Cl)cccc21", "note": "[Example 65, 5-(2-chloro-3-fluorophenyl)-3-((thiazol-2-ylmethyl)amino)-4H-benzo[e][1,2,4]thiadiazine 1,1-dioxide]", "values": [
      {"measurement": "EC50", "setting": "[1]", "result": 10.7, "unit": "nM"},
      {"measurement": "hMRGX2 Binding Affinity (pKd)", "setting": "human MRGX2 receptor", "result": 7.055}
    ]},
    {"compound": "O=S1(=O)N=C(NCc2ncccn2)Nc2c(-c3cccc(F)c3Cl)cccc21", "note": "[Example 66, 5-(2-chloro-3-fluorophenyl)-3-((pyrimidin-2-ylmethyl)amino)-4H-benzo[e][1,2,4]thiadiazine 1,1-dioxide]", "values": [
      {"measurement": "EC50", "setting": "[1]", "result": 29.4, "unit": "nM"},
      {"measurement": "hMRGX2 Binding Affinity (pKd)", "setting": "human MRGX2 receptor", "result": 7.22}
    ]},
    {"compound": "CNC1=NS(=O)(=O)c2cccc(-c3cccc(F)c3C#N)c2N1", "note": "[Example 89, 2-fluoro-6-(3-(methylamino)-1,1-dioxido-4H-benzo[e][1,2,4]thiadiazin-5-yl)benzonitrile]", "values": [
      {"measurement": "EC50", "setting": "[1]", "result": 69.2, "unit": "nM"},
      {"measurement": "hMRGX2 Binding Affinity (pKd)", "setting": "human MRGX2 receptor", "result": 6.35}
    ]},
    {"compound": "Cc1nn(C)cc1-c1cccc2c1NC(Nc1ccc(C(C)C)cc1)=NS2(=O)=O", "note": "[Example 103, 5-(1,3-dimethyl-1H-pyrazol-4-yl)-3-((4-isopropylphenyl)amino)-4H-benzo[e][1,2,4]thiadiaazne 1,1-dioxide]", "values": [
      {"measurement": "EC50", "setting": "[1]", "result": 51.2, "unit": "nM"},
      {"measurement": "hMRGX2 Binding Affinity (pKd)", "setting": "human MRGX2 receptor", "result": 6.755}
    ]},
    {"compound": "CC(C)c1ccc(NC2=NS(=O)(=O)c3cccc(-c4cnn(C5CCC5)c4)c3N2)cc1", "note": "[Example 105, 5-(1-cyclobutyl-1H-pyrazol-4-yl)-3-((4-isopropylphenyl)amino)-4H-benzo[e][1,2,4]thiadiazine 1,1-dioxide]", "values": [
      {"measurement": "EC50", "setting": "[1]", "result": 119, "unit": "nM"},
      {"measurement": "hMRGX2 Binding Affinity (pKd)", "setting": "human MRGX2 receptor", "result": 6.06}
    ]},
    {"compound": "CC(C)c1ccc(NC2=NS(=O)(=O)c3cccc(-c4cnn(C)c4)c3N2)cc1", "note": "[Example 107, 3-((4-isopropylphenyl)amino)-5-(1-methyl-1H-pyrazol-4-yl)-4H-benzo[e][1,2,4]thiadiazine 1,1-dioxide]", "values": [
      {"measurement": "EC50", "setting": "[1]", "result": 132, "unit": "nM"},
      {"measurement": "hMRGX2 Binding Affinity (pKd)", "setting": "human MRGX2 receptor", "result": 6.52}
    ]},
    {"compound": "CC(C)c1ccc(NC2=NS(=O)(=O)c3cccc(C4CC4)c3N2)cc1", "note": "[Example 109, 5-cyclopropyl-3-((4-isopropylphenyl)amino)-4H-benzo[e][1,2,4]thiadiazine 1,1-dioxide]", "values": [
      {"measurement": "EC50", "setting": "[1]", "result": 106, "unit": "nM"},
      {"measurement": "hMRGX2 Binding Affinity (pKd)", "setting": "human MRGX2 receptor", "result": 6.575}
    ]},
    {"compound": "Cc1c(-c2cccc3c2NC(Nc2ccc(C(C)C)cc2)=NS3(=O)=O)cnn1C", "note": "[Example 114, 5-(1,5-dimethyl-1H-pyrazol-4-yl)-3-((4-isopropylphenyl)amino)-4H-benzo[e][1,2,4]thiadiazine 1,1-dioxide]", "values": [
      {"measurement": "EC50", "setting": "[1]", "result": 262, "unit": "nM"},
      {"measurement": "hMRGX2 Binding Affinity (pKd)", "setting": "human MRGX2 receptor", "result": 6.095}
    ]},
    {"compound": "COCCNC1=NS(=O)(=O)c2cccc(-c3cccc(F)c3C#N)c2N1", "note": "[Example 125, 2-fluoro-6-(3-((2-methoxyethyl)amino)-1,1-dioxido-4H-benzo[e][1,2,4]thiadiazin-5-yl)benzonitrile]", "values": [
      {"measurement": "EC50", "setting": "[1]", "result": 78.2, "unit": "nM"},
      {"measurement": "hMRGX2 Binding Affinity (pKd)", "setting": "human MRGX2 receptor", "result": 6.545}
    ]},
    {"compound": "CCc1ccc(NC2=NS(=O)(=O)c3cccc(-c4cnn(C)c4)c3N2)cc1", "note": "[Example 136, 3-((4-ethylphenyl)amino)-5-(1-methyl-1H-pyrazol-4-yl)-4H-benzo[e][1,2,4]thiadiazine 1,1-dioxide]", "values": [
      {"measurement": "EC50", "setting": "[1]", "result": 119, "unit": "nM"},
      {"measurement": "hMRGX2 Binding Affinity (pKd)", "setting": "human MRGX2 receptor", "result": 6.535}
    ]},
    {"compound": "Cc1ccccc1-c1cccc2c1NC(NCc1ccco1)=NS2(=O)=O", "note": "[Example 137, 3-((furan-2-ylmethyl)amino)-5-(o-tolyl)-4H-benzo[e][1,2,4]thiadiazine 1,1-dioxide]", "values": [
      {"measurement": "EC50", "setting": "[1]", "result": 79.1, "unit": "nM"},
      {"measurement": "hMRGX2 Binding Affinity (pKd)", "setting": "human MRGX2 receptor", "result": 6.54}
    ]},
    {"compound": "O=S1(=O)N=C(NCCF)Nc2c(-c3cccc(F)c3Cl)cccc21", "note": "[Example 147, 5-(2-chloro-3-fluorophenyl)-3-((2-fluoroethyl)amino)-4H-benzo[e][1,2,4]thiadiazine 1,1-dioxide]", "values": [
      {"measurement": "EC50", "setting": "[1]", "result": 51.1, "unit": "nM"},
      {"measurement": "hMRGX2 Binding Affinity (pKd)", "setting": "human MRGX2 receptor", "result": 6.67}
    ]},
    {"compound": "Cc1ccccc1-c1cccc2c1NC(NCc1ccccn1)=NS2(=O)=O", "note": "[Example 162, 3-((pyridin-2-ylmethyl)amino)-5-(o-tolyl)-4H-benzo[e][1,2,4]thiadiazine 1,1-dioxide]", "values": [
      {"measurement": "EC50", "setting": "[1]", "result": 100, "unit": "nM"},
      {"measurement": "hMRGX2 Binding Affinity (pKd)", "setting": "human MRGX2 receptor", "result": 6.51}
    ]},
    {"compound": "COCc1cccc2c1NC(Nc1ccc(C(C)C)cc1)=NS2(=O)=O", "note": "[Example 169, 3-((4-isopropylphenyl)amino)-5-(methoxymethyl)-4H-benzo[e][1,2,4]thiadiazine 1,1-dioxide]", "values": [
      {"measurement": "EC50", "setting": "[1]", "result": 474, "unit": "nM"},
      {"measurement": "hMRGX2 Binding Affinity (pKd)", "setting": "human MRGX2 receptor", "result": 5.95}
    ]}
  ]
}
